Source: US11931389B2, “Tablet of sporoderm-removed ganoderma lucidum spore and preparation method thereof” (Zhejiang Shouxiangu Pharmaceutical Company, Ltd., priority 2017, dated 2024)
Counter-ions that a name gives are not always drawn.

Tests used:
Assay type in all cases: in vivo
[1] = tested on: human lung adenocarcinoma (A549) transplanted tumor; assay: Zebrafish human lung adenocarcinoma (A549) transplanted tumor model; settings: A549, 50 μM, 2 days
Description: Human lung adenocarcinoma (A549) cells were labeled with a red fluorescent dye (CM-Dil), and transplanted into zebrafish yolk sacs by microinjection, with about 200 cells being transplanted per zebrafish, so as to establish a zebrafish human lung adenocarcinoma transplanted tumor model.
Human lung adenocarcinoma (A549) cells were labeled with CM-Dil, and transplanted into 2 dpf wild type AB strain zebrafish yolk sacs by microinjection, with about 200 cells being transplanted per zebrafish, so as to establish a zebrafish human lung adenocarcinoma (A549) transplanted model; and the zebrafishes injected with the A549 cells were fed at 35° C. until 3 dpf.
(§1) Zebrafishes with better consistence in transplanted tumor cells were picked out under a microscope, randomly assigned to a 6-well plate, and were given in a water-dissolving administration manner respectively with the samples at concentrations respectively of 1, 3 and 9 μg/mL and the positive control drug cis-platinum at a concentration of 50 μM; and meanwhile a model control group was set, where there were 30 zebrafishes per well (concentration group), and the volume of each well was 5 mL. […] The inhibitory effect of the sample No. 3 on the zebrafish lung adenocarcinoma (A549) transplanted tumor was evaluated with the fluorescence intensities, and the tumor inhibition effect was calculated using the following equation. […]

[2] = tested on: human gastric cancer (SGC-7901) transplanted tumor; assay: Zebrafish human gastric cancer (SGC-7901) transplanted tumor model; settings: SGC-7901, 50 μM, 2 days
Description: Human gastric cancer (SGC-7901) cells were labeled with a red fluorescent dye (CM-Dil), and transplanted into zebrafish yolk sacs by microinjection, with about 200 cells being transplanted per zebrafish, so as to establish the zebrafish human gastric cancer transplanted tumor model.
Human gastric cancer (SGC-7901) cells were labeled with CM-Dil, and transplanted into 2 dpf wild type AB strain zebrafish yolk sacs by microinjection, with about 200 cells per zebrafish, so as to establish a zebrafish human gastric cancer (SGC-7901) transplanted model; and the zebrafishes injected with the SGC-7901 cells were fed at 35° C. until 3 dpf.
Zebrafishes with better consistence in transplanted tumor cells were picked out under a microscope, randomly assigned to a 6-well plate, and were given in a water-dissolving administration manner respectively with the samples at concentrations respectively of 28, 83 and 250 μg/mL and the positive control drug cis-platinum at a concentration of 50 μM; and meanwhile a model control group was set, where there were 30 zebrafishes per well, and the volume of each well was 5 mL. […] The inhibitory effects of samples on the zebrafish gastric cancer (SGC-7901) transplanted tumor were respectively evaluated with the fluorescence intensities, and the tumor inhibition effect was calculated using the following equation. […]

[3] = tested on: human lymphatic cancer (Ramos) transplanted tumor; assay: Zebrafish human lymphatic cancer (Ramos) transplanted tumor model; settings: Danio rerio, 48 h, 2 days, read-out: Inhibition Effect
Description: Human lymphatic cancer (Ramos) cells were labeled with a red fluorescent dye (CM-Dil), and transplanted into zebrafish yolk sacs by microinjection, with about 200 cells being transplanted per zebrafish, so as to establish a zebrafish human lymphatic cancer transplanted tumor model.
Human lymphatic cancer (Ramos) cells were labeled with CM-Dil, and transplanted into 2 dpf wild type AB strain zebrafish yolk sacs by microinjection, with about 200 cells being transplanted per zebrafish, so as to establish a zebrafish human lymphatic cancer transplanted model; and the zebrafishes injected with the human lymphatic cancer cells were fed at 35° C. until 3 dpf.
as §1, with “vincristine” for “cis-platinum”, “5” for “50”, “sample” for “sample No. 3”, “lymphatic cancer (Ramos)” for “lung adenocarcinoma (A549)”

Row | Structure (SMILES) | Inhibition Effect [1] | Inhibition Effect [2] | inhibition at 5 µM [3]
1 | N.N.[Cl][Pt][Cl] [cis-platinum, Cis-platinum] | 29% | 37% | –
2 | CC[C@]1(O)C[C@H]2CN(CCc3c([nH]c4ccccc34)[C@@](C(=O)OC)(c3cc4c(cc3OC)N(C=O)[C@H]3[C@@](O)(C(=O)OC)[C@H](OC(C)=O)[C@]5(CC)C=CCN6CC[C@]43[C@@H]65)C2)C1 [vincristine, Vincristine sulfate] | – | – | 35%
